Source: patent publication US20090252788A1, “Balsalazide formulations and manufacture and use thereof” (Salix Pharmaceuticals, Inc., priority 2005, published 2009)

Key:
[1] = Solubility of balsalazide disodium in solvents; assay type: physicochemical
[2] = Stability of standard and sample solutions in dissolution medium; assay type: physicochemical; conditions: room temperature, unprotected from light
Description: Prepare the stock standard solution in duplicate. For each preparation, transfer approximately 35 mg of Balsalazide Disodium Reference Standard, accurately weighed, to a 200-mL volumetric flask. Add 150 mL of dissolution medium, swirl and briefly sonicate to dissolve the flask contents. Dilute to volume with dissolution medium and mix well. Stock Standard Preparation A should be used for analysis of dissolution samples. Prep B should be used as the standard check preparation. The stock standard preparation is stable for 4 days when stored at room temperature and unprotected from light.
For each of the stock standard preparations, pipet 5.0 mL of the stock solution into a 50-mL volumetric flask, dilute to volume with dissolution medium, and mix well. The working standard preparation is stable for 4 days when stored at room temperature and unprotected from light.
Perform USP Apparatus 2 dissolution testing on six individual capsules utilizing the dissolution conditions listed below. Immediately, filter the samples using a 0.2 μm Gelman Nylon filter or a 10-μm Vankel Full Flow filter, discarding the first 2 mL of sample. Pipet 2.0 mL of the sample filtrate into a 100-mL volumetric flask, dilute to volume with dissolution medium, and mix well (nominal concentration: 0.017 mg Balsalazide Disodium per mL). […]

Structure (SMILES): O.O.O=C([O-])CCNC(=O)c1ccc(/N=N/c2ccc(O)c(C(=O)[O-])c2)cc1.[Na+].[Na+] [Balsalazide disodium, (E)-5-[[-4-[[(2-carboxyethyl)amino]carbonyl]phenyl]azo]-2-hydroxybenzoic acid, disodium salt, dihydrate]
- Solubility ([1]; in all other organic solvents): practically insoluble
- Solubility ([1]; in ethanol): sparingly soluble
- Solubility ([1]; in isotonic saline): freely soluble
- Solubility ([1]; in methanol): sparingly soluble
- Solubility ([1]; in water): freely soluble
- Time the preparation is stable ([2]; stock standard preparation 0.175 mg/mL in dissolution medium): 4 days
- Time the preparation is stable ([2]; working standard preparation 0.0175 mg/mL in dissolution medium): 4 days
